Test results taken from patent publication US11840686B2, “Modulation of prekallikrein (PKK) expression” (Ionis Pharmaceuticals, Inc., priority 2013, dated 2023).
Strand notation (5' to 3'): a small letter for the sugar, then the base; units joined by * are phosphorothioate-linked, units joined directly phosphodiester-linked; [ ] holds rarer units or linkages, { } end groups; capitals alone tell only the bases. e = 2'-O-(2-methoxyethyl) (MOE); [5mC] = 5-methylcytosine; d = 2'-deoxy (DNA)

Test system: human PKK mRNA
Experiment: Antisense inhibition of human PKK mRNA in HepaRG cells, 5,000 nM (Example 2)
Assay type: cell-based
Outline: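 Percent inhibition of PKK mRNA is relative to untreated control, with qRT-PCR (probe set RTS3454) values adjusted to total RNA by RIBOGREEN. Oligonucleotides, fully phosphorothioate 2′-MOE gapmers, were delivered at 5,000 nM by electroporation into 20,000 HepaRG cells/well for about 24 h.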

[1] = HepaRG cells, electroporation with 5,000 nM antisense oligonucleotide, approximately 24 hours, PKK mRNA by RT-PCR (RTS3454), relative to untreated control cells, Table 5 experiment
[2] = human PKK mRNA, HepaRG cells, 5,000 nM antisense oligonucleotide, Table 18
[3] = HepaRG cells, 5,000 nM antisense oligonucleotide, 5-10-5 gapmers, Table 16
[4] = human PKK mRNA in HepaRG cells, 5-10-5 gapmers, Table 14
[5] = Table 9 experiment, HepaRG cells, 20,000 cells per well, electroporation with 5,000 nM antisense oligonucleotide, approx. 24 hours, PKK mRNA by RT-PCR (RTS3454), relative to untreated control cells
[6] = Table 10 experiment, HepaRG cells, 20,000 cells per well, electroporation with 5,000 nM antisense oligonucleotide, approx. 24 hours, PKK mRNA by RT-PCR (RTS3454), relative to untreated control cells
[7] = HepaRG cells, electroporation, 5,000 nM antisense oligonucleotide, approx. 24 hours, primer probe set RTS3454, relative to untreated control cells, Table 11
[8] = HepaRG cells, electroporation with 5,000 nM antisense oligonucleotide, approximately 24 hours, PKK mRNA by RT-PCR (RTS3454), relative to untreated control cells, Table 6 experiment
[9] = HepaRG cells, 5,000 nM antisense oligonucleotide, 5-10-5 gapmers, Table 17
[10] = HepaRG cells, electroporation, 5,000 nM antisense oligonucleotide, approx. 24 hours, primer probe set RTS3454, relative to untreated control cells, Table 12
[11] = Table 8, HepaRG cells, electroporation with 5,000 nM antisense oligonucleotide, approx. 24 hours, PKK mRNA by RT-PCR (RTS3454), relative to untreated control cells
[12] = Table 7, HepaRG cells, electroporation with 5,000 nM antisense oligonucleotide, approx. 24 hours, PKK mRNA by RT-PCR (RTS3454), relative to untreated control cells

“547270 (eA*eA*eA*eA*eT*dG*dA*dA*d[5mC]*dG*dG*dT*d[5mC]*dT*dT*e[5mC]*eA*eA*eG*e[5mC]; antisense) [compound 547270]” was tested, and the “% inhibition” value [1] was 68%.

In the case of “548751 (antisense eA*e[5mC]*eT*eG*dT*dA*d[5mC]*dT*dA*dG*dT*dT*dT*d[5mC]*e[5mC]*eT*eA*eT) [compound 548751]”, the “% inhibition” value [2] is reported as 53%.

For “546954 (e[5mC]*eT*eG*e[5mC]*eT*dG*dA*dT*dT*dG*dT*dG*dT*d[5mC]*dT*eG*eG*e[5mC]*eT*e[5mC]; antisense) [compound 546954]”, the “% inhibition” value [3] was 71%.

With “547611 (antisense e[5mC]*eT*eG*eT*eA*dA*d[5mC]*dA*dG*dT*dA*dT*d[5mC]*dA*d[5mC]*eT*eG*eT*eA*e[5mC]) [compound 547611]” the “% inhibition” value [4] was 71%.

For “547448 (antisense eT*eT*eA*eT*eT*dT*dG*dT*dG*dA*dG*dA*dA*dA*dG*eG*eT*eG*eT*eA) [compound 547448]”, the “% inhibition” value [5] was 75% and the “% inhibition” value [6] was 83%.

In the case of “548769 (antisense eA*eG*eT*eA*dT*d[5mC]*dA*d[5mC]*dT*dG*dT*d[5mC]*d[5mC]*eT*eA*eT*eA) [compound 548769]”, the “% inhibition” value [2] is reported as 64%.

For “546389 (e[5mC]*eG*eT*eG*e[5mC]*dT*dG*dA*dA*dA*dG*d[5mC]*dG*dG*dG*e[5mC]*eT*eT*e[5mC]*eA; antisense) [compound 546389]”, the “% inhibition” value [7] was 71%.

For “546204 (antisense eA*eA*eT*eA*eG*dG*d[5mC]*dA*dA*dT*dT*dG*dT*dT*d[5mC]*e[5mC]*eG*eG*eT*eA) [compound 546204]”, the “% inhibition” value [8] was 91%.

For “547039 (eT*e[5mC]*eT*e[5mC]*eT*dA*dT*dA*d[5mC]*dA*dG*d[5mC]*dT*dG*dG*eG*e[5mC]*eA*e[5mC]*eA; antisense) [compound 547039]”, the “% inhibition” value [9] was 0%.

In the case of “546511 (eG*eT*eG*eA*eT*dG*dA*dA*dA*dG*dT*dA*d[5mC]*dA*dG*e[5mC]*eA*eG*e[5mC]*eA; antisense) [compound 546511]”, the “% inhibition” value [10] is reported as 50%.

With “547356 (eT*eA*eA*eT*eA*dG*dG*d[5mC]*dA*dA*dT*dT*dG*dT*dT*e[5mC]*e[5mC]*eG*eG*eT; antisense) [compound 547356]” the “% inhibition” value [8] was 83%.

For “547782 (antisense e[5mC]*e[5mC]*eA*eA*eG*dT*dA*dT*d[5mC]*dT*d[5mC]*dA*dT*dG*dT*eG*e[5mC]*e[5mC]*eT*eG) [compound 547782]”, the “% inhibition” value [9] was 67%.

For “546267 (e[5mC]*e[5mC]*eT*eT*eA*d[5mC]*dA*dG*dT*d[5mC]*dT*dT*d[5mC]*dT*dG*eG*eG*eA*eG*eT; antisense) [compound 546267]”, the “% inhibition” value [11] was 72%.

For “547593 (eT*eT*e[5mC]*e[5mC]*eT*dA*dT*dA*dA*d[5mC]*dT*dA*dT*dA*dA*e[5mC]*eA*eG*eT*eA; antisense) [compound 547593]”, the “% inhibition” value [4] was 29%.

With “546265 (eG*eT*e[5mC]*eT*eT*d[5mC]*dT*dG*dG*dG*dA*dG*dT*dA*dA*eA*eG*eA*eA*eT; antisense) [compound 546265]” the “% inhibition” value [11] was 65%.

In the case of “547377 (e[5mC]*eA*eT*eT*eT*dG*dT*dA*dT*dA*dG*dA*dA*dT*dG*eT*eA*eA*eA*eG; antisense) [compound 547377]”, the “% inhibition” value [12] is reported as 6%.

“547274 (antisense eG*eA*eG*eG*eT*dG*dA*dG*dT*d[5mC]*dT*d[5mC]*dT*dT*dG*eT*e[5mC]*eA*e[5mC]*eT) [compound 547274]” was tested, and the “% inhibition” value [1] was 70%.

With “546209 (antisense eG*e[5mC]*eT*eT*e[5mC]*dA*dG*dT*dG*dA*dG*dA*dA*dT*d[5mC]*e[5mC]*eA*eG*eA*eT) [compound 546209]” the “% inhibition” value [8] was 73%.

In the case of “548741 (DNA e[5mC]*eT*eG*eT*dA*d[5mC]*dT*dA*dG*dT*dT*dT*d[5mC]*e[5mC]*eT*eA*eT; antisense) [compound 548741]”, the “% inhibition” value [2] is reported as 69%.

With “547398 (e[5mC]*eA*eG*eG*eG*dT*dT*d[5mC]*dA*dG*dG*dT*dA*dA*dA*eG*eT*eT*e[5mC]*eT; antisense) [compound 547398]” the “% inhibition” value [12] was 16%.

For “547371 (eA*eT*eG*eG*eT*d[5mC]*d[5mC]*dG*dA*d[5mC]*dA*d[5mC]*dA*d[5mC]*dA*eA*eA*eA*eG*e[5mC]; antisense) [compound 547371]”, the “% inhibition” value [12] was 66%.

“546323 (antisense eG*eT*eG*e[5mC]*eT*dT*dG*dT*dG*dT*d[5mC]*dA*d[5mC]*d[5mC]*dT*eT*eT*eG*eG*eA) [compound 546323]” was tested, and the “% inhibition” value [5] was 94% and the “% inhibition” value [6] was 80%.

In the case of “547467 (antisense eT*eG*eG*eT*eA*dT*dA*dA*dA*dT*dT*dG*dT*dG*d[5mC]*eT*eT*eG*eT*eG) [compound 547467]”, the “% inhibition” value [5] is reported as 80% and the “% inhibition” value [6] is reported as 65%.

In the case of “548722 (DNA eA*e[5mC]*eT*dG*dT*dA*d[5mC]*dT*dA*dG*dT*dT*dT*e[5mC]*e[5mC]*eT*eA; antisense) [compound 548722]”, the “% inhibition” value (HepaRG cells, 5,000 nM antisense oligonucleotide, human PKK mRNA, Table 18) is reported as 26%.

In the case of “547536 (antisense eT*eG*e[5mC]*eA*eT*dA*dG*dA*d[5mC]*d[5mC]*d[5mC]*d[5mC]*dA*dA*d[5mC]*eA*eG*eA*e[5mC]*eA) [compound 547536]”, the “% inhibition” value [10] is reported as 48%.

In the case of “546394 (eG*eT*e[5mC]*eA*eT*dG*dG*dA*dG*dA*dT*d[5mC]*dT*d[5mC]*dA*eG*eT*eT*eG*e[5mC]; antisense) [compound 546394]”, the “% inhibition” value [7] is reported as 71%.

With “546152 (eG*eT*eA*e[5mC]*eA*dT*dG*dG*dA*dA*dG*d[5mC]*dT*dA*d[5mC]*eA*eT*e[5mC]*e[5mC]*e[5mC]; antisense) [compound 546152]” the “% inhibition” value [1] was 73%.

In the case of “547492 (antisense e[5mC]*eA*eG*eT*e[5mC]*d[5mC]*dA*dT*dG*dT*dA*d[5mC]*dT*d[5mC]*dA*eG*e[5mC]*eG*eA*e[5mC]) [compound 547492]”, the “% inhibition” value [7] is reported as 62%.

In the case of “547291 (antisense eA*eT*eG*eG*eA*dA*dG*d[5mC]*dT*dA*d[5mC]*dA*dT*d[5mC]*d[5mC]*e[5mC]*e[5mC]*eA*e[5mC]*e[5mC]) [compound 547291]”, the “% inhibition” value [1] is reported as 74%.

For “547312 (antisense eA*eT*eG*eT*eA*d[5mC]*dT*dT*dT*dT*dG*dG*d[5mC]*dA*dG*eG*eG*eT*eT*e[5mC]) [compound 547312]”, the “% inhibition” value [1] was 46%.

With “546379 (antisense e[5mC]*eT*e[5mC]*e[5mC]*eA*dT*dG*d[5mC]*dT*dT*dT*dG*d[5mC]*dA*dG*eA*eT*eG*eA*eG) [compound 546379]” the “% inhibition” value [7] was 69%.

“547500 (antisense e[5mC]*e[5mC]*eT*eA*eG*dA*d[5mC]*dT*d[5mC]*dT*dG*dG*dA*d[5mC]*dT*eG*e[5mC]*eT*eT*e[5mC]) [compound 547500]” was tested, and the “% inhibition” value [7] was 65%.

“547574 (eA*e[5mC]*eA*e[5mC]*eG*d[5mC]*dA*d[5mC]*dA*dG*dG*dT*d[5mC]*d[5mC]*d[5mC]*eA*eG*eG*eG*e[5mC]; antisense) [compound 547574]” was tested, and the “% inhibition” value (Table 13, human PKK mRNA in HepaRG cells, 5-10-5 gapmers) was 51%.

In the case of “546347 (antisense eA*e[5mC]*eT*eA*eA*dG*dG*dG*dA*d[5mC]*d[5mC]*dA*d[5mC]*d[5mC]*dT*eG*eA*eA*eT*e[5mC]) [compound 546347]”, the “% inhibition” value [5] is reported as 28% and the “% inhibition” value [6] is reported as 22%.

“546904 (eT*e[5mC]*e[5mC]*eT*eA*dT*dA*dT*d[5mC]*dA*d[5mC]*dT*dG*dT*dA*e[5mC]*e[5mC]*eT*eA*eT; antisense) [compound 546904]” was tested, and the “% inhibition” value (human PKK mRNA, HepaRG cells, 5-10-5 motif oligonucleotides targeting SEQ ID NO: 1 and 10) was 80%.

For “546165 (e[5mC]*eA*eT*eT*eG*dA*dT*dT*dG*dA*dA*d[5mC]*dT*dT*dG*e[5mC]*eT*eG*eG*eA; antisense) [compound 546165]”, the “% inhibition” value [1] was 71%.

In the case of “546331 (antisense eT*eT*e[5mC]*eA*e[5mC]*d[5mC]*dT*dT*dT*d[5mC]*dT*d[5mC]*d[5mC]*dT*dT*e[5mC]*eG*eA*eG*eA) [compound 546331]”, the “% inhibition” value [5] is reported as 59% and the “% inhibition” value [6] is reported as 44%.

In the case of “547304 (antisense e[5mC]*eT*eT*eT*eT*d[5mC]*dT*d[5mC]*d[5mC]*dA*dT*dG*dT*d[5mC]*dA*eT*eT*eG*eA*eT) [compound 547304]”, the “% inhibition” value [1] is reported as 71%.

In the case of “548742 (DNA eA*e[5mC]*eT*eG*dT*dA*d[5mC]*dT*dA*dG*dT*dT*dT*e[5mC]*e[5mC]*eT*eA; antisense) [compound 548742]”, the “% inhibition” value [2] is reported as 50%.

With “547524 (antisense e[5mC]*eA*eT*eT*eG*dT*d[5mC]*dA*dG*d[5mC]*d[5mC]*d[5mC]*d[5mC]*dT*dG*eG*eT*eT*eA*e[5mC]) [compound 547524]” the “% inhibition” value [7] was 58%.

“547715 (eG*eG*eT*e[5mC]*eA*dG*dA*dA*dG*dG*d[5mC]*d[5mC]*dT*d[5mC]*dT*eT*eA*eT*eT*e[5mC]; antisense) [compound 547715]” was tested, and the “% inhibition” value [3] was 21%.

“546422 (eA*e[5mC]*eG*eG*eT*d[5mC]*dT*dT*d[5mC]*dA*dA*dG*d[5mC]*dT*dG*eT*eT*e[5mC]*eT*eA; antisense) [compound 546422]” was tested, and the “% inhibition” value [10] was 72%.
